Assay results as given in patent US20230203043A1, “NOVEL IMIDAZOPYRAZINE DERIVATIVES” (Hoffmann-La Roche Inc., priority 2020, published 2023).
Counter-ions that a name gives are not always drawn.

Each compound was assayed on Acinetobacter baumannii ATCC17961 (assay: Antimicrobial susceptibility testing: 90% growth inhibitory concentration (IC90) determination in Iso-Sensitest broth, OD600 growth). Conditions: Acinetobacter baumannii, ATCC17961, 16 h, read-out: A. baumannii ATCC 17961 IC90 (uM), strain ATCC 17961, OD600 growth over 16 h.
Type: cell-based
How it was run: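 Growth monitored at 600 nm every 20 min for 16 h at 35±2 °C, inoculum ~5×10^(5) CFU/ml in Iso-Sensitest medium. Compounds in 10-point twofold series, e.g. 50 to 0.097 μM final; 90% inhibitory concentration taken from log-phase growth.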

| SMILES | IC90 |
| --- | --- |
| Cc1cc(Nc2nccn3c(-c4cn(CC#N)nc4C(F)(F)F)cnc23)ccc1C(=O)NCCNC(=O)[C@@H]1C[C@@H](O)CN1 [Example 375, (2S,4R)-N-[2-[[4-[[3-[1-(cyanomethyl)-3-(trifluoromethyl)pyrazol-4-yl]imidazo[1,2-a]pyrazin-8-yl]amino]-2-methylbenzoyl]amino]ethyl]-4-hydroxypyrrolidine-2-carboxamide formate] | 0.338 µM |
| Cc1cc(Nc2nccn3c(-c4cn(CC#N)nc4C(F)(F)F)cnc23)ccc1C(=O)N1CCN(C(=O)N[C@H]2CNC[C@@H]2O)CC1 [Example 376, 4-[4-[[3-[1-(cyanomethyl)-3-(trifluoromethyl)pyrazol-4-yl]imidazo[1,2-a]pyrazin-8-yl]amino]-2-methylbenzoyl]-N-[(3S,4S)-4-hydroxypyrrolidin-3-yl]piperazine-1-carboxamide formate] | 0.43 µM |
| Cc1cc(Nc2nccn3c(-c4cn(CC#N)nc4C(F)(F)F)cnc23)ccc1C(=O)N1CCN(C(=O)[C@@H]2CCNC[C@H]2O)CC1 [Example 380, formic acid; 2-[4-[8-[4-[4-[(3S,4R)-3-hydroxypiperidine-4-carbonyl]piperazine-1-carbonyl]-3-methylanilino]imidazo[1,2-a]pyrazin-3-yl]-3-(trifluoromethyl)pyrazol-1-yl]acetonitrile] | 0.623 µM |
| Cc1cc(Nc2nccn3c(-c4cn(CC#N)nc4C(F)(F)F)cnc23)ccc1C(=O)N1CCN(C(=O)[C@H]2CCNC[C@@H]2O)CC1 [Example 382, formic acid; 2-[4-[8-[4-[4-[(3R,4S)-3-hydroxypiperidine-4-carbonyl]piperazine-1-carbonyl]-3-methylanilino]imidazo[1,2-a]pyrazin-3-yl]-3-(trifluoromethyl)pyrazol-1-yl]acetonitrile] | 0.749 µM |
| O=C(N[C@H]1CCNC1)N1CCN(C(=O)c2ccc(Nc3nccn4c(-c5c[nH]nc5C(F)(F)F)cnc34)cc2Cl)CC1 [Example 389, 4-[2-chloro-4-[[3-[3-(trifluoromethyl)-1H-pyrazol-4-yl]imidazo[1,2-a]pyrazin-8-yl]amino]benzoyl]-N-[(3S)-pyrrolidin-3-yl]piperazine-1-carboxamide formate] | 0.136 µM |
| NCCCNC(=O)N1CCN(C(=O)c2ccc(Nc3nccn4c(-c5c[nH]nc5C(F)(F)F)cnc34)cc2Cl)CC1 [Example 390, N-(3-aminopropyl)-4-[2-chloro-4-[[3-[3-(trifluoromethyl)-1H-pyrazol-4-yl]imidazo[1,2-a]pyrazin-8-yl]amino]benzoyl]piperazine-1-carboxamide formate] | 0.177 µM |
| O=C(N[C@@H]1CCNC1)N1CCN(C(=O)c2ccc(Nc3nccn4c(-c5c[nH]nc5C(F)(F)F)cnc34)cc2Cl)CC1 [Example 391, 4-[2-chloro-4-[[3-[3-(trifluoromethyl)-1H-pyrazol-4-yl]imidazo[1,2-a]pyrazin-8-yl]amino]benzoyl]-N-[(3R)-pyrrolidin-3-yl]piperazine-1-carboxamide formate] | 0.203 µM |
| NCCNC(=O)N1CCN(C(=O)c2ccc(Nc3nccn4c(-c5c[nH]nc5C(F)(F)F)cnc34)cc2Cl)CC1 [Example 392, N-(2-aminoethyl)-4-[2-chloro-4-[[3-[3-(trifluoromethyl)-1H-pyrazol-4-yl]imidazo[1,2-a]pyrazin-8-yl]amino]benzoyl]piperazine-1-carboxamide formate] | 0.208 µM |
| O=C(NCC1CNC1)N1CCN(C(=O)c2ccc(Nc3nccn4c(-c5c[nH]nc5C(F)(F)F)cnc34)cc2Cl)CC1 [Example 393, N-(azetidin-3-ylmethyl)-4-[2-chloro-4-[[3-[3-(trifluoromethyl)-1H-pyrazol-4-yl]imidazo[1,2-a]pyrazin-8-yl]amino]benzoyl]piperazine-1-carboxamide formate] | 0.239 µM |
| O=C(NC1CNC1)N1CCN(C(=O)c2ccc(Nc3nccn4c(-c5c[nH]nc5C(F)(F)F)cnc34)cc2Cl)CC1 [Example 394, N-(azetidin-3-yl)-4-[2-chloro-4-[[3-[3-(trifluoromethyl)-1H-pyrazol-4-yl]imidazo[1,2-a]pyrazin-8-yl]amino]benzoyl]piperazine-1-carboxamide formate] | 0.331 µM |
| NCCCC(=O)N1CCN(C(=O)c2ccc(Nc3nccn4c(-c5c[nH]nc5C(F)(F)F)cnc34)cc2Cl)CC1 [Example 399, 4-amino-1-[4-[2-chloro-4-[[3-[3-(trifluoromethyl)-1H-pyrazol-4-yl]imidazo[1,2-a]pyrazin-8-yl]amino]benzoyl]piperazin-1-yl]butan-1-one formate] | 0.214 µM |
| NCCC(=O)N1CCN(C(=O)c2ccc(Nc3nccn4c(-c5c[nH]nc5C(F)(F)F)cnc34)cc2Cl)CC1 [Example 400, 3-amino-1-[4-[2-chloro-4-[[3-[3-(trifluoromethyl)-1H-pyrazol-4-yl]imidazo[1,2-a]pyrazin-8-yl]amino]benzoyl]piperazin-1-yl]propan-1-one formate] | 0.217 µM |
| O=C(c1ccc(Nc2nccn3c(-c4c[nH]nc4C(F)(F)F)cnc23)cc1Cl)N1CCN(C(=O)C2CCNCC2)CC1 [Example 401, [2-chloro-4-[[3-[3-(trifluoromethyl)-1H-pyrazol-4-yl]imidazo[1,2-a]pyrazin-8-yl]amino]phenyl]-[4-(piperidine-4-carbonyl)piperazin-1-yl]methanone formate] | 0.273 µM |
| Cc1cc(Nc2nccn3c(-c4c[nH]nc4C(F)(F)F)cnc23)ccc1C(=O)N1CCN(C(=O)NC2CNC2)CC1 [Example 408, N-(azetidin-3-yl)-4-[2-methyl-4-[[3-[3-(trifluoromethyl)-1H-pyrazol-4-yl]imidazo[1,2-a]pyrazin-8-yl]amino]benzoyl]piperazine-1-carboxamide formate] | 0.481 µM |

Same assay, conditions: Acinetobacter baumannii, ATCC17961, 16 h, strain ATCC 17961, OD600 growth over 16 h, read-out: A. baumannii ATCC 17961 IC90

| IC90 | SMILES |
| --- | --- |
| 0.237 µM | O=C(NC1CCC(NC(=O)[C@@H]2C[C@@H](O)CN2)CC1)c1ccc(Nc2nccn3c(-c4c[nH]nc4C(F)(F)F)cnc23)cc1Cl (stereo partly drawn) [Example 374, (2S,4R)-N-[4-[[2-chloro-4-[[3-[3-(trifluoromethyl)-1H-pyrazol-4-yl]imidazo[1,2-a]pyrazin-8-yl]amino]benzoyl]amino]cyclohexyl]-4-hydroxypyrrolidine-2-carboxamide] |
| 0.562 µM | O=C(N[C@H]1CCNC1)c1ccc(Nc2nccn3c(-c4c[nH]nc4C(F)(F)F)cnc23)cc1Cl [Example 378, 2-chloro-N-[(3S)-pyrrolidin-3-yl]-4-[[3-[3-(trifluoromethyl)-1H-pyrazol-4-yl]imidazo[1,2-a]pyrazin-8-yl]amino]benzamide] |
| 0.576 µM | O=C(N[C@@H]1CCNC1)c1ccc(Nc2nccn3c(-c4c[nH]nc4C(F)(F)F)cnc23)cc1Cl [Example 379, 2-chloro-N-[(3R)-pyrrolidin-3-yl]-4-[[3-[3-(trifluoromethyl)-1H-pyrazol-4-yl]imidazo[1,2-a]pyrazin-8-yl]amino]benzamide] |
| 0.63 µM | O=C(NC1CCN(C(=O)[C@@H]2C[C@@H](O)CN2)CC1)c1ccc(Nc2nccn3c(-c4c[nH]nc4C(F)(F)F)cnc23)cc1Cl [Example 381, 2-chloro-N-[1-[(2S,4R)-4-hydroxypyrrolidine-2-carbonyl]piperidin-4-yl]-4-[[3-[3-(trifluoromethyl)-1H-pyrazol-4-yl]imidazo[1,2-a]pyrazin-8-yl]amino]benzamide] |
| 0.969 µM | NC1CCC(NC(=O)c2ccc(Nc3nccn4c(-c5c[nH]nc5C(F)(F)F)cnc34)cc2Cl)CC1 (centres unmarked) [Example 385, N-(4-aminocyclohexyl)-2-chloro-4-[[3-[3-(trifluoromethyl)-1H-pyrazol-4-yl]imidazo[1,2-a]pyrazin-8-yl]amino]benzamide] |
| 0.337 µM | CNC(=O)c1ccc(Nc2nccn3c(-c4c[nH]nc4C(F)(F)F)cnc23)cc1Cl [Example 388, 2-chloro-N-methyl-4-[[3-[3-(trifluoromethyl)-1H-pyrazol-4-yl]imidazo[1,2-a]pyrazin-8-yl]amino]benzamide] |
| 0.384 µM | CN(C)C(=O)c1ccc(Nc2nccn3c(-c4c[nH]nc4C(F)(F)F)cnc23)cc1Cl [Example 402, 2-chloro-N,N-dimethyl-4-[[3-[3-(trifluoromethyl)-1H-pyrazol-4-yl]imidazo[1,2-a]pyrazin-8-yl]amino]benzamide] |
| 1.23 µM | NC(=O)c1ccc(Nc2nccn3c(-c4c[nH]nc4C(F)(F)F)cnc23)cc1Cl [Example 404, 2-chloro-4-[[3-[3-(trifluoromethyl)-1H-pyrazol-4-yl]imidazo[1,2-a]pyrazin-8-yl]amino]benzamide] |
| 1.4 µM | O=C(NC1CNC1)c1ccc(Nc2nccn3c(-c4c[nH]nc4C(F)(F)F)cnc23)cc1Cl [Example 406, N-(azetidin-3-yl)-2-chloro-4-[[3-[3-(trifluoromethyl)-1H-pyrazol-4-yl]imidazo[1,2-a]pyrazin-8-yl]amino]benzamide] |

Same assay, conditions: strain ATCC 17961, OD600 growth over 16 h, read-out: A. baumannii ATCC 17961 IC90

| IC90 | SMILES |
| --- | --- |
| 0.833 µM | NC1CC(NC(=O)c2ccc(Nc3nccn4c(-c5c[nH]nc5C(F)(F)F)cnc34)cc2Cl)C1 (centres unmarked) [Example 384, N-(3-aminocyclobutyl)-2-chloro-4-[[3-[3-(trifluoromethyl)-1H-pyrazol-4-yl]imidazo[1,2-a]pyrazin-8-yl]amino]benzamide] |
| 0.398 µM | NC1CC(NC(=O)c2ccc(Nc3nccn4c(-c5c[nH]nc5C(F)(F)F)cnc34)cc2Cl)C1 (centres unmarked) [Example 403, N-(3-aminocyclobutyl)-2-chloro-4-[[3-[3-(trifluoromethyl)-1H-pyrazol-4-yl]imidazo[1,2-a]pyrazin-8-yl]amino]benzamide] |
| 1.3 µM | NC1CCC(NC(=O)c2ccc(Nc3nccn4c(-c5c[nH]nc5C(F)(F)F)cnc34)cc2Cl)CC1 (centres unmarked) [Example 405, N-(4-aminocyclohexyl)-2-chloro-4-[[3-[3-(trifluoromethyl)-1H-pyrazol-4-yl]imidazo[1,2-a]pyrazin-8-yl]amino]benzamide] |
